A short description of experiment [1]: Inhibition of ENO1 in overexpressed human D423 cells incubated for 5 days by crystal violet staining based spectrophotometry.
The nature of experiment [2]: Inhibition of ENO1 in wild-type human LN319 cells incubated for 5 days by crystal violet staining based spectrophotometry.
Experiment [3] in a line: Inhibition of ENO1 in overexpressed human D423 cells incubated for 5 days in presence of 21 % oxygen by crystal violet staining based spectrophotometry.
The nature of experiment [4]: Inhibition of ENO1 in overexpressed human D423 cells incubated for 5 days in presence of 1 % oxygen by crystal violet staining based spectrophotometry.
A short description of experiment [5]: Inhibition of ENO1 in wild-type human LN319 cells incubated for 5 days in presence of 21 % oxygen by crystal violet staining based spectrophotometry.
Experiment [6] can be described thus: Inhibition of ENO1 in wild-type human LN319 cells incubated for 5 days in presence of 1 % oxygen by crystal violet staining based spectrophotometry.

As for `O=C1C(P(=O)(O)O)CCCN1O` (configuration not stated), the IC50 in experiment [1] and in experiment [2] was greater than 100000 nM throughout.
As to `CC(=O)ON1CCCC(P(=O)(NCc2ccccc2)OCc2ccc([N+](=O)[O-])o2)C1=O` (configuration not stated), the IC50 was found to be 25900 nM in experiment [3], 5760 nM in experiment [4] and 21100 nM in experiment [5].
For the compound `CC(C)(C)C(=O)OCOP(=O)(OCOC(=O)C(C)(C)C)C1CCCN(O)C1=O` (configuration not stated), the concentration for half-maximal inhibition (IC50) in experiment [3] was 720 nM; in experiment [6], 1810 nM; in experiment [1], 604 nM; in experiment [4], 2810 nM; in experiment [5], 2410 nM; in experiment [2], 2150 nM.
As for `Cn1c(COP(=O)(NCCBr)NCCBr)cnc1[N+](=O)[O-]` [Evofosfamide], the IC50 in experiment [3] is 2550 nM; in experiment [6], 897 nM; in experiment [4], 301 nM; in experiment [5] it was 4840 nM.
Consider `CC(C)(C)C(=O)OCOP(=O)(NCc1ccccc1)C1CCCN(O)C1=O` (configuration not stated), for which the 50% inhibitory concentration (IC50) was determined as 3940 nM in experiment [1] and 4020 nM in experiment [2].

The values above are taken from BindingDB's records for doi:10.1021/acsmedchemlett.0c00203 (University of Texas Md Anderson Cancer Center, 2020).
